Source: patent US8192962B2, “Processes for detecting toxic substances” (Daikin Industries, Ltd., priority 2001, dated 2012)

Tested on: Mitochondria-located protein genes
Experiment: DNA chip mRNA expression in yeast, mitochondria-located protein genes (Table 2)
Assay type: cell-based, Saccharomyces cerevisiae S288C
Conditions: cells incubated two hours with the chemical substance
Outline: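 Untreated cultures served as reference for log-phase S288C yeast given a growth-inhibiting, non-lethal toxicant dose for 2 h at 25° C. in YPD. Gene expression was measured on a whole-genome DNA chip from Cy3/Cy5-labeled cDNA.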

CCCCCCCCCCCCOS(=O)(=O)[O-].[Na+] [(18), sodium lauryl sulfate]
The level of expressed mRNA in the presence of chemical substance/The level of expressed mRNA in the absence of chemical substance (yeast gene YJR121W): 1.4
The level of expressed mRNA in the presence of chemical substance/The level of expressed mRNA in the absence of chemical substance (yeast gene YKL003C): 1.2
The level of expressed mRNA in the presence of chemical substance/The level of expressed mRNA in the absence of chemical substance (yeast gene YKL016C): 1.7
The level of expressed mRNA in the presence of chemical substance/The level of expressed mRNA in the absence of chemical substance (yeast gene YKL141W): 1.8
The level of expressed mRNA in the presence of chemical substance/The level of expressed mRNA in the absence of chemical substance (yeast gene YKL142W): 3.6
The level of expressed mRNA in the presence of chemical substance/The level of expressed mRNA in the absence of chemical substance (yeast gene YKL148C): 1.0
The level of expressed mRNA in the presence of chemical substance/The level of expressed mRNA in the absence of chemical substance (yeast gene YKL170W): 1.4
The level of expressed mRNA in the presence of chemical substance/The level of expressed mRNA in the absence of chemical substance (yeast gene YKL194C): 1.1
The level of expressed mRNA in the presence of chemical substance/The level of expressed mRNA in the absence of chemical substance (yeast gene YKR066C): 1.1
The level of expressed mRNA in the presence of chemical substance/The level of expressed mRNA in the absence of chemical substance (yeast gene YLL041C): 1.7
The level of expressed mRNA in the presence of chemical substance/The level of expressed mRNA in the absence of chemical substance (yeast gene YLR038C): 2.1
The level of expressed mRNA in the presence of chemical substance/The level of expressed mRNA in the absence of chemical substance (yeast gene YLR259C): 1.0
The level of expressed mRNA in the presence of chemical substance/The level of expressed mRNA in the absence of chemical substance (yeast gene YLR295C): 1.5
The level of expressed mRNA in the presence of chemical substance/The level of expressed mRNA in the absence of chemical substance (yeast gene YLR304C): 0.7
The level of expressed mRNA in the presence of chemical substance/The level of expressed mRNA in the absence of chemical substance (yeast gene YLR348C): 1.0
The level of expressed mRNA in the presence of chemical substance/The level of expressed mRNA in the absence of chemical substance (yeast gene YLR395C): 2.3
The level of expressed mRNA in the presence of chemical substance/The level of expressed mRNA in the absence of chemical substance (yeast gene YML054C): 1.6
The level of expressed mRNA in the presence of chemical substance/The level of expressed mRNA in the absence of chemical substance (yeast gene YML120C): 1.6
The level of expressed mRNA in the presence of chemical substance/The level of expressed mRNA in the absence of chemical substance (yeast gene YML129C): 1.3
The level of expressed mRNA in the presence of chemical substance/The level of expressed mRNA in the absence of chemical substance (yeast gene YMR023C): 1.4
The level of expressed mRNA in the presence of chemical substance/The level of expressed mRNA in the absence of chemical substance (yeast gene YMR035W): 2.4
The level of expressed mRNA in the presence of chemical substance/The level of expressed mRNA in the absence of chemical substance (yeast gene YMR083W): 1.1
The level of expressed mRNA in the presence of chemical substance/The level of expressed mRNA in the absence of chemical substance (yeast gene YMR089C): 1.1
The level of expressed mRNA in the presence of chemical substance/The level of expressed mRNA in the absence of chemical substance (yeast gene YMR152W): 0.9
The level of expressed mRNA in the presence of chemical substance/The level of expressed mRNA in the absence of chemical substance (yeast gene YMR203W): 0.7
The level of expressed mRNA in the presence of chemical substance/The level of expressed mRNA in the absence of chemical substance (yeast gene YMR267W): 1.3
The level of expressed mRNA in the presence of chemical substance/The level of expressed mRNA in the absence of chemical substance (yeast gene YNL055C): 1.7
The level of expressed mRNA in the presence of chemical substance/The level of expressed mRNA in the absence of chemical substance (yeast gene YNL071W): 1.2
The level of expressed mRNA in the presence of chemical substance/The level of expressed mRNA in the absence of chemical substance (yeast gene YNL073W): 1.0
The level of expressed mRNA in the presence of chemical substance/The level of expressed mRNA in the absence of chemical substance (yeast gene YNL104C): 0.9
The level of expressed mRNA in the presence of chemical substance/The level of expressed mRNA in the absence of chemical substance (yeast gene YNL256W): 0.6
The level of expressed mRNA in the presence of chemical substance/The level of expressed mRNA in the absence of chemical substance (yeast gene YOL096C): 1.2
The level of expressed mRNA in the presence of chemical substance/The level of expressed mRNA in the absence of chemical substance (yeast gene YOR020C): 1.7
The level of expressed mRNA in the presence of chemical substance/The level of expressed mRNA in the absence of chemical substance (yeast gene YOR037W): 1.6
The level of expressed mRNA in the presence of chemical substance/The level of expressed mRNA in the absence of chemical substance (yeast gene YOR100C): 0.8
The level of expressed mRNA in the presence of chemical substance/The level of expressed mRNA in the absence of chemical substance (yeast gene YOR130C): 1.1
The level of expressed mRNA in the presence of chemical substance/The level of expressed mRNA in the absence of chemical substance (yeast gene YOR142W): 1.0
The level of expressed mRNA in the presence of chemical substance/The level of expressed mRNA in the absence of chemical substance (yeast gene YOR150W): 1.3
The level of expressed mRNA in the presence of chemical substance/The level of expressed mRNA in the absence of chemical substance (yeast gene YOR176W): 2.1
The level of expressed mRNA in the presence of chemical substance/The level of expressed mRNA in the absence of chemical substance (yeast gene YOR187W): 1.3
The level of expressed mRNA in the presence of chemical substance/The level of expressed mRNA in the absence of chemical substance (yeast gene YOR316C): 1.0
The level of expressed mRNA in the presence of chemical substance/The level of expressed mRNA in the absence of chemical substance (yeast gene YPL040C): 1.1
The level of expressed mRNA in the presence of chemical substance/The level of expressed mRNA in the absence of chemical substance (yeast gene YPL134C): 1.3
The level of expressed mRNA in the presence of chemical substance/The level of expressed mRNA in the absence of chemical substance (yeast gene YPL135W): 1.7
The level of expressed mRNA in the presence of chemical substance/The level of expressed mRNA in the absence of chemical substance (yeast gene YPL215W): 1.1
The level of expressed mRNA in the presence of chemical substance/The level of expressed mRNA in the absence of chemical substance (yeast gene YPL262W): 1.2
The level of expressed mRNA in the presence of chemical substance/The level of expressed mRNA in the absence of chemical substance (yeast gene YPR024W): 0.8
The level of expressed mRNA in the presence of chemical substance/The level of expressed mRNA in the absence of chemical substance (yeast gene YPR037C): 1.7
The level of expressed mRNA in the presence of chemical substance/The level of expressed mRNA in the absence of chemical substance (yeast gene YPR047W): 1.5
The level of expressed mRNA in the presence of chemical substance/The level of expressed mRNA in the absence of chemical substance (yeast gene YPR134W): 1.2
